The results in this text go back to PMC8291583, “Design, synthesis, and evaluation of 3,7-substituted coumarin derivatives as multifunctional Alzheimer’s disease agents” (Journal of Enzyme Inhibition and Medicinal Chemistry, 2021).

For one assay, the target named is T1, BuChE from equine serum (Equus caballus, UniProt P81908).
T1 construct: 12 U/ml BuChE from equine serum; from tissue; host or cells: equine serum
The experiment in a line: biochemical. As for the experimental part:
(§1) Cholinesterase activity is determined using a modified colorimetric method first described by Ellman[40]. […] The stock was then further diluted by factors of ten to produce solutions of 1 mM, 100 µM, 10 µM, 1 µM, and 0.1 µM which corresponds to concentrations of 100 µM, 10 µM, 1 µM, 0.1 µM, and 0.01 µM in the final reaction mixture. The test concentrations were stored in the refrigerator until the day of the assay. Trisma HCl buffer (50 mM, adjusted to pH 8 with 2 N NaOH) was prepared as the buffer and used to prepare enzyme stock solution (22 U/ml for Electrophorus electricus AChE and 12 U/ml BuChE from equine serum), 15 mM acetylthiocholine iodide, 15 mM S-butyrylthiocholine iodide and 1.5 mM DTNB (Ellman’s reagent). The enzyme stock solution was stabilised with 1% bovine serum albumin and stored in aliquots at −80 °C. A clear, flat bottom 96 well plate was used to perform the experiments with each concentration performed in triplicate. Prior to the assay the background absorbance for each compound at the different test concentrations was measured and accounted for when reading the final absorbance. […] Following this, 30 µl of the substrate was added to each well simultaneously using a multi pipette. […] A one-sample t-test was performed on the data to test for statistical significance.

For assay [1], the target named is Electrophorus electricus AChE (Electrophorus electricus, UniProt O42275). The assay can be described thus: biochemical. The protocol:
as §1

The target in the next assay is T2, recombinant human MAO-A (Homo sapiens, UniProt P21397).
T2 sequence (P21397 1-527): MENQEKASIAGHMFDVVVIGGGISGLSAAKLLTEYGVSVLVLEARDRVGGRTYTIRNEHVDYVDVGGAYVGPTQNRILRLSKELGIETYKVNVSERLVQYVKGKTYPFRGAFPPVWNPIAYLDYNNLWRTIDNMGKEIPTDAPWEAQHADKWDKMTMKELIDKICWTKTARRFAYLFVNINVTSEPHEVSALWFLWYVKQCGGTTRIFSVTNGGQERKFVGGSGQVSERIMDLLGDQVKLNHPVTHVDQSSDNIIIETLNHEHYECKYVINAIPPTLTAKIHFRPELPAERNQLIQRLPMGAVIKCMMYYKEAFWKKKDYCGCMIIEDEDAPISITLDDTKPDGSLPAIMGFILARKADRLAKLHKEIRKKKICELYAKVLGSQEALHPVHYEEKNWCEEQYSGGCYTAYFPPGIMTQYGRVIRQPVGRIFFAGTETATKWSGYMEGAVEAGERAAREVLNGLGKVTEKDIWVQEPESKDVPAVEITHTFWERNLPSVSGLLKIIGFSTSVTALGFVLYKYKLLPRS
The experiment in a line: biochemical. As for the experimental part: The stock was then further diluted by factors of ten to produce solutions of 1 mM, 100 µM, 10 µM, 1 µM, and 0.1 µM which would correspond to concentrations of 100 µM, 10 µM, 1 µM, 0.1 µM, and 0.01 µM in the final reaction mixture. A potassium phosphate buffer ([…] 100 mM, pH 7.4, 0.9% w/v NaCl) was prepared and refrigerated until further use. The enzyme stock solutions were prepared by dissolving 2.5 mg of enzyme in 33.33 ml of phosphate buffer to produce stock solutions of 0.075 mg/ml which were stored in aliquots at −80 °C until use. Once in the final reaction mixture, this enzyme solution will have a concentration of 0.0075 mg/ml. […] The fresh substrate was prepared on the day of the assay. The assay was carried out in 2 ml Eppendorf vials. […] Following this, 25 µl of the enzyme stock were added to each vial in 10 s intervals and the vials were incubated at 37 °C for 10 min. […] To stop the reaction at the end of this time 150 hx00B5;l of 2 N NaOH was added and the mixture was shaken. Using a micropipette 80 hx00B5;l of the mixture was transferred to a well in a black 96 well plate. The plate was placed in the fluorescent plate reader and read at an excitation/emission wavelength of 310 nm/410 nm. Each assay was run in triplicate and the data were analysed with Graph Pad Prism 8 software (San Diego, USA).
The MAO inhibitory activity of the compounds was assessed using a fluorometric assay with recombinant human MAO-A and human MAO-B enzymes.

The next assay concerns the target recombinant human MAO-B (Homo sapiens, UniProt P27338). The assay can be described thus: MAO-B fluorometric assay (kynuramine). Format: biochemical. As for the experimental part: . The stock was then further diluted by factors of ten to produce solutions of 1 mM, 100 µM, 10 µM, 1 µM, and 0.1 µM which would correspond to concentrations of 100 µM, 10 µM, 1 µM, 0.1 µM, and 0.01 µM in the final reaction mixture. A potassium phosphate buffer ([…] 100 mM, pH 7.4, 0.9% w/v NaCl) was prepared and refrigerated until further use. The enzyme stock solutions were prepared by dissolving 2.5 mg of enzyme in 33.33 ml of phosphate buffer to produce stock solutions of 0.075 mg/ml which were stored in aliquots at −80 °C until use. […]. The substrate was prepared by dissolving kynuramine in potassium buffer and was prepared as two separate concentrations; […]. The fresh substrate was prepared on the day of the assay. The assay was carried out in 2 ml Eppendorf vials. […] Following this, 25 µl of the enzyme stock were added to each vial in 10 s intervals and the vials were incubated at 37 °C for 10 min. After this time period 15 µl of kynuramine (750 µM for MAO-A and 500 µM for MAO-B) was added at 10 s intervals and further incubated for 20 min. To stop the reaction at the end of this time 150 hx00B5;l of 2 N NaOH was added and the mixture was shaken. Using a micropipette 80 hx00B5;l of the mixture was transferred to a well in a black 96 well plate. The plate was placed in the fluorescent plate reader and read at an excitation/emission wavelength of 310 nm/410 nm. Each assay was run in triplicate and the data were analysed with Graph Pad Prism 8 software (San Diego, USA).
The MAO inhibitory activity of the compounds was assessed using a fluorometric assay with recombinant human MAO-A and human MAO-B enzymes. […].

Assay [2] has as its system MPP+-compromised SH-SY5Y neuroblastoma cells. It counts as cell-based, human. The protocol:
SH-SY5Y cells were seeded onto a 96-well plate in a growth medium at a density of 10,000 cells/well. Cells were pre-treated with test compounds at a concentration of 10 µM and thereafter 2000 µM MPP^+ following a 2-h incubation period. Afterwards, cells were incubated for 24 h and MTT colorimetric assay was used to measure cell viability relative to untreated control. To determine the data’s statistical significance, the One-way ANOVA Turkey’s multiple comparison test was conducted on all experimental replicates using GraphPad Prism® 8 (San Diego, USA).
The SH-SY5Y cells were pre-treated with 10 µM of the test compounds for 2 h followed by the addition of 2000 µM of MPP^+.

The mark [3] stands for this setting: Ellman method, 25 °C, pH 8, read-out: BuChE IC50.
Setting [4] is: Ellman method, 25 °C, pH 8, read-out: AChE IC50.
[5] abbreviates: kynuramine 45 µM, 37 °C, read-out: MAO-A IC50.
Setting [6] is: kynuramine 30 µM, 37 °C, read-out: MAO-B IC50.
[7] abbreviates: 10 µM compound, 2 h pre-treatment, 2000 µM MPP+, 24 h, SH-SY5Y.

Where two headings read alike, the source gives them in different places.

Chain of recombinant human MAO-B (P27338 whole entry): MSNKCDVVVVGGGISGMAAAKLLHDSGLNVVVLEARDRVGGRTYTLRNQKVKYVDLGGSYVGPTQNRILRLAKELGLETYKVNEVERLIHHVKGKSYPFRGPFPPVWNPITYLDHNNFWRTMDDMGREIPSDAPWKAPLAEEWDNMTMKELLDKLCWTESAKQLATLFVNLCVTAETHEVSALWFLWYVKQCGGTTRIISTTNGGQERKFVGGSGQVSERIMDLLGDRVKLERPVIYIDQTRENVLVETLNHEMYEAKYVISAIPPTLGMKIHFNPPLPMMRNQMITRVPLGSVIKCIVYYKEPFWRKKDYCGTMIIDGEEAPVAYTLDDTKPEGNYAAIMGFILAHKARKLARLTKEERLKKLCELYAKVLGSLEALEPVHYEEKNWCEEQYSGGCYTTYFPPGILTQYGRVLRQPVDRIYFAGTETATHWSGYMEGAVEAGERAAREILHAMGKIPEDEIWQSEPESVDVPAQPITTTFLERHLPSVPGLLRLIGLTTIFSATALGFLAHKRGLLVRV
Chain of Electrophorus electricus AChE (O42275 24-633): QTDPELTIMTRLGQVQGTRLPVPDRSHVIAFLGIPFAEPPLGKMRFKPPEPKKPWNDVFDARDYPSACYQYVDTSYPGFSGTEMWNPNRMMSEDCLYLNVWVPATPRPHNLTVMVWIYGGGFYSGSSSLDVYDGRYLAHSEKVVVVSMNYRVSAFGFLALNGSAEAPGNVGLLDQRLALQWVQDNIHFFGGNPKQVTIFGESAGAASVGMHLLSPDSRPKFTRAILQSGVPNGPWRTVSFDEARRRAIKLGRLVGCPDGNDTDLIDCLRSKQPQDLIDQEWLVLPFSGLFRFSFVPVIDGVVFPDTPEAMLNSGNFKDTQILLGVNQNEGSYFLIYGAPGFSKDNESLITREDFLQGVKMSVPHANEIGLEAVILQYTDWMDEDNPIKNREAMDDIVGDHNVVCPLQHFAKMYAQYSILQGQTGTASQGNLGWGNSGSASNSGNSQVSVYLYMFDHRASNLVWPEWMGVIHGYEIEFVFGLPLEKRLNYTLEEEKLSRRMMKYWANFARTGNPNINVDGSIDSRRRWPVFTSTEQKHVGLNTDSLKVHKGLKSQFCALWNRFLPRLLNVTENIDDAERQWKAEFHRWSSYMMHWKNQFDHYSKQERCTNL
T1 sequence (P81908 whole entry): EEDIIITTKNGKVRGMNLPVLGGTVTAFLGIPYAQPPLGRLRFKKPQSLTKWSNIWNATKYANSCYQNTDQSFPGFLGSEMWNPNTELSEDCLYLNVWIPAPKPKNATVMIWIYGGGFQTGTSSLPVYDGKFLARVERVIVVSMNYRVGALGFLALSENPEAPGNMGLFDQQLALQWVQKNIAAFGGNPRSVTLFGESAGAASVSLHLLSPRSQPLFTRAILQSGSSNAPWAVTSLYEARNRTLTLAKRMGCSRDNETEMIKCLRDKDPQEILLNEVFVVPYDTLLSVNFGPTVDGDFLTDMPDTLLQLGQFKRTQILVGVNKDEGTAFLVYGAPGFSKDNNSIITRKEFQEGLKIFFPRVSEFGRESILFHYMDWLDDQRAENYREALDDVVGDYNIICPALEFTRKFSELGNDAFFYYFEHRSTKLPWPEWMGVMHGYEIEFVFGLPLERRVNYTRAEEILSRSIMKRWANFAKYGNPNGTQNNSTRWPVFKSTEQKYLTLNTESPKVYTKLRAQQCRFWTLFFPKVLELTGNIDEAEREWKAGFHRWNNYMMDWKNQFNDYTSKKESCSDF

With `Cc1cc2ccc(O)cc2oc1=O` [Compound 1, 7-hydroxy-3-methyl-2H-1-benzopyran-2-one], the IC50 (commonly the midpoint of a concentration-inhibition curve) was 20.2 µM against BuChE from equine serum, > 100 µM in assay [1] (AChE IC50), 33.4 µM at recombinant human MAO-A (MAO-A IC50) and 16.4 µM on recombinant human MAO-B. For the same compound, at recombinant human MAO-B, the “SI MAO-B (MAO-B selectivity index = IC50(MAO-A)/IC50(MAO-B))” value came out at 2.04. In assay [2], the “MPP+ neuroprotection (difference in percentage cell viability vs MPP+ only treated cells)” value is 26.24%.
With `Cc1cc2ccc(OCCc3ccccc3)cc2oc1=O` [Compound 2, 3-methyl-7-(2-phenylethoxy)-2H-1-benzopyran-2-one], the IC50 is > 100 µM at BuChE from equine serum (setting [3]), > 100 µM in assay [1] (setting [4]), 0.658 µM on recombinant human MAO-A (setting [5]) and 0.014 µM at recombinant human MAO-B (setting [6]). Also, at recombinant human MAO-B, the “SI MAO-B (MAO-B selectivity index = IC50(MAO-A)/IC50(MAO-B))” value turned out to be 47.7. Further, in assay [2] (setting [7]), the “MPP+ neuroprotection (difference in percentage cell viability vs MPP+ only treated cells)” value is recorded as 24.85%.
For the compound `CCN(CC)C(=O)Oc1ccc2cc(C)c(=O)oc2c1` [Compound 3, 3-methyl-2-oxo-2H-1-benzopyran-7-yl-diethylcarbamate], the IC50 at BuChE from equine serum (setting [3]) was > 100 µM; in assay [1] (setting [4]), > 100 µM; on recombinant human MAO-A (setting [5]) it was 2.82 µM; on recombinant human MAO-B (setting [6]) it was 0.498 µM. Also, the “SI MAO-B (MAO-B selectivity index = IC50(MAO-A)/IC50(MAO-B))” value at recombinant human MAO-B is recorded as 5.67. Besides, the “MPP+ neuroprotection (difference in percentage cell viability vs MPP+ only treated cells)” value in assay [2] (setting [7]) was 15.59%.
